Results from patent publication US7927639B2, “Mixture of Propionibacterium jensenii and Lactobacillus sp. with antimicrobial activities for the use as natural preservation system” (Eidgenossische Technische Hochschule Zurich, priority 2001, dated 2011).

Key:
Type in all cases: cell-based
[1] = system: Candida pulcherrima 1-50/13; assay: Antifungal activity in agar plates; conditions: storage 21 days at 6° C.; cultures incorporated in agar plates at 10^8 cfu/ml (SM17, SM39 10^7 cfu/ml); Ka-Sorbat 1 g/l; spot-inoculation with 10^6 cfu/ml
Protocol: (§1) Agar plates were prepared, supplemented with Propionbacterium jensenii SM11 or an antimicrobial Lactobacillusor a combination of both. The cultures were previously grown separately for 72 h at 32° C. in supplemented whey permeate (SWP1), centrifugated, washed once and resuspended (1:1) in 0.85% NaCl and then serially diluted in dilution-buffer (0.85% NaCl, 0.1% peptone). Portions of 20 ml of agar were prepared with 10% of each dilution to give a final level of 10^5, 10^6, 10^7 and 10^8 cfu/ml. Agar plates were poured and after solidifying, portions of approximately 2-5 μl of broth cultures of the indicator strains were spot inoculated on the plates. YM agar was used for yeasts and moulds and BHI agar for bacteria. Triplex of the agar plates were stored at 6° C., 12° C. and 25° C. for up to 4 weeks and the growth of indicator organisms was controlled weekly for 6° C. or daily for 12° C. and 25° C. As a control, agar plates without supplementation of lactobacilli and propionibacteria were prepared as well as agar plates with an addition of 1 g/l Ka-Sorbat (EU-Richtlinie, Nr. 95/2/HG).
(§2) A total of 18 lactobacilli were tested for their antifungal activities alone or in combination with the high-antifungal Propionibacterium jensenii SM11. Therefore, the strains were incorporated, after centrifugation and a washing step in concentrations from 10^5 to 10^8 cfu/ml in YM agar plates on which the fungi listed in Table 1 were spotted in corresponding levels from 10^1 to 10^7 cfu/ml. The plates were stored in different batches at 6° C., 12° C. and 25° C. The growth of yeasts was controlled weekly or daily, respectively. […] A cell number of 10^8 cfu/ml of the Lactobacillus-strain and 10^8 cfu/ml of the Propionibacterium-strain was necessary for high inhibitory activities. Table 4 indicates five examples of the antifungal activities observed at 6° C. with a concentration of 10^8 cfu/ml (10^7 cfu/ml for Lactobacillus plantarum SM17) against spot-inoculated yeasts in a density of 10^6 cfu/ml and against spot-inoculated 3-day cultures of moulds.

[2] = system: Sporobolomyces salmonicolor 3-46/2; assay: Antifungal activity in agar plates; conditions: storage 21 days at 6° C.; cultures incorporated in agar plates at 10^8 cfu/ml (SM17, SM39 10^7 cfu/ml); Ka-Sorbat 1 g/l; spot-inoculation with 10^6 cfu/ml
Protocol: as §1, §2

[3] = system: Candida parapsilosis 4-5/1; assay: Antifungal activity in agar plates; conditions: storage 21 days at 6° C.; cultures incorporated in agar plates at 10^8 cfu/ml (SM17, SM39 10^7 cfu/ml); Ka-Sorbat 1 g/l; spot-inoculation with 10^6 cfu/ml
Protocol: as §1, §2

Candida krusei 3-69/2 = assay: Antifungal activity in agar plates; conditions: storage 21 days at 6° C.; cultures incorporated in agar plates at 10^8 cfu/ml (SM17, SM39 10^7 cfu/ml); Ka-Sorbat 1 g/l; spot-inoculation with 10^6 cfu/ml
Protocol: as §1, §2

Candida magnoliae 1-35/1 = assay: Antifungal activity in agar plates; conditions: storage 21 days at 6° C.; cultures incorporated in agar plates at 10^8 cfu/ml (SM17, SM39 10^7 cfu/ml); Ka-Sorbat 1 g/l; spot-inoculation with 10^6 cfu/ml
Protocol: as §1, §2

Candida sp. 1-50/15 = assay: Antifungal activity in agar plates; conditions: storage 21 days at 6° C.; cultures incorporated in agar plates at 10^8 cfu/ml (SM17, SM39 10^7 cfu/ml); Ka-Sorbat 1 g/l; spot-inoculation with 10^6 cfu/ml
Protocol: as §1, §2

Candida valida 1-48/8 = assay: Antifungal activity in agar plates; conditions: storage 21 days at 6° C.; cultures incorporated in agar plates at 10^8 cfu/ml (SM17, SM39 10^7 cfu/ml); Ka-Sorbat 1 g/l; spot-inoculation with 10^6 cfu/ml
Protocol: as §1, §2

[4] = system: Zygosaccharomyces bailii 1-48/1; assay: Antifungal activity in agar plates; conditions: storage 21 days at 6° C.; cultures incorporated in agar plates at 10^8 cfu/ml (SM17, SM39 10^7 cfu/ml); Ka-Sorbat 1 g/l; spot-inoculation with 10^6 cfu/ml
Protocol: as §1, §2

Candida reukaufii 4-73/4 = assay: Antifungal activity in agar plates; conditions: storage 21 days at 6° C.; cultures incorporated in agar plates at 10^8 cfu/ml (SM17, SM39 10^7 cfu/ml); Ka-Sorbat 1 g/l; spot-inoculation with 10^6 cfu/ml
Protocol: as §1, §2

Candida silvicola 4-42/1 = assay: Antifungal activity in agar plates; conditions: storage 21 days at 6° C.; cultures incorporated in agar plates at 10^8 cfu/ml (SM17, SM39 10^7 cfu/ml); Ka-Sorbat 1 g/l; spot-inoculation with 10^6 cfu/ml
Protocol: as §1, §2

fungi listed in Table 1 = assay: Antifungal activities in agar plates (overall statements); conditions: YM agar plates stored at 6° C.
Protocol: as §1
A total of 18 lactobacilli were tested for their antifungal activities alone or in combination with the high-antifungal Propionibacterium jensenii SM11. […]

C/C=C/C=C/C(=O)[O-].[K+] [Ka-Sorbat]
colony growth of Candida pulcherrima 1-50/13 [1]: ++ (++ strong colony (≈0% inhibition))
colony growth of Sporobolomyces salmonicolor 3-46/2 [2]: − (− no colony (≈100% inhibition))
colony growth of Candida parapsilosis 4-5/1 [3]: − (− no colony (≈100% inhibition))
colony growth of Candida krusei 3-69/2 (Candida krusei 3-69/2): − (− no colony (≈100% inhibition))
colony growth of Candida magnoliae 1-35/1 (Candida magnoliae 1-35/1): ++ (++ strong colony (≈0% inhibition))
colony growth of Candida sp. 1-50/15 (Candida sp. 1-50/15): ++ (++ strong colony (≈0% inhibition))
colony growth of Candida valida 1-48/8 (Candida valida 1-48/8): − (− no colony (≈100% inhibition))
colony growth of Zygosaccharomyces bailii 1-48/1 [4]: − (− no colony (≈100% inhibition))
colony growth of Candida reukaufii 4-73/4 (Candida reukaufii 4-73/4): ++ (++ strong colony (≈0% inhibition))
colony growth of Candida silvicola 4-42/1 (Candida silvicola 4-42/1): ++ (++ strong colony (≈0% inhibition))
antifungal (inhibitory) activity in agar plates, in words (fungi listed in Table 1): weaker inhibitory activity
